Reference: US20200390729A1, “OPHTHALMIC TOPICAL COMPOSITION COMPRISING DOBESILIC ACID FOR TREATING DISEASES OF THE POSTERIOR SEGMENT OF THE EYE” (LABORATORIOS SALVAT, S.A., priority 2017, published 2020)
Read-outs that look alike come from different tables or passages of the source.

Experiment: Ocular distribution of CDO in rats, single dose topical ocular vs. oral
Type: in vivo, Sprague Dawley (SD) rat
Conditions: rat
Protocol: In Sprague Dawley (SD) rat, weighing approximately 200 g, CDO was administered by topical ocular instillation (10 μl/eye) at 10 mg/ml (composition 2 of Example 1), at 100 mg/ml (composition 5 of Example 1) or by oral gavage at 50 mg/kg, at 200 mg/kg or at 750 mg/kg in aqueous solution (from compositions 1, 3 and 4, respectively, of Example 1). At 15, 60, 180 and 360 minutes post-administration, animals were euthanized and plasma and ocular tissues including sclera, cornea, retina, vitreous humour/lens and optic nerve were collected.
Bioanalysis of CDO was performed depending on the type of matrix. In the case of plasma, proteins were precipitated using methanol. In the case of tissues, samples were grinded in a Mini Bead Beater using zirconium beads and methanol/water (1:1) (v/v) as solvent. After centrifugation, samples were analyzed by UPLC-MS/MS.
Chromatographic separation was carried out using an Acquity CSH Fluoro Phenyl column (1.7 μm, 50×2.1 mm). Mobile phase consisted of a gradient using 0.1% formic acid in water and acetonitrile from 5% to 45% in 4.5 min at a flow rate of 0.6 ml/min.
With regard to the mass spectrometric detection, the electrospray ionization source worked to record negative ions. Multiple Reaction Monitoring (MRM) acquisition mode of the deprotonated molecular ions was performed. The transition monitored for CDO was m/z 189.0→80.1 with a cone voltage of 45 V and collision energy of 25 eV.

[1] = Sprague Dawley, cornea, topical eye 10 mg/ml (eye drop of 10 μl) = 0.1 mg, read-out: CDO concentrations Cornea
[2] = Sprague Dawley, cornea, topical eye 100 mg/ml (eye drop of 10 μl) = 1 mg, read-out: CDO concentrations Cornea
[3] = Sprague Dawley, optic nerve, oral 50 mg/Kg = 10 mg, read-out: CDO concentrations Optic nerve
[4] = Sprague Dawley, plasma, oral 200 mg/Kg = 40 mg, read-out: CDO concentrations Plasma
[5] = Sprague Dawley, plasma, oral 750 mg/Kg = 150 mg, read-out: CDO concentrations Plasma
[6] = Sprague Dawley, retina/choroid, topical eye 10 mg/ml (eye drop of 10 μl) = 0.1 mg, read-out: CDO concentrations Retina/Choroid
[7] = Sprague Dawley, retina, oral 200 mg/Kg = 40 mg, read-out: CDO concentrations Retina
[8] = Sprague Dawley, retina, oral 750 mg/Kg = 150 mg, read-out: CDO concentrations Retina
[9] = Sprague Dawley, retina, topical eye 100 mg/ml (eye drop of 10 μl) = 1 mg, read-out: CDO concentrations Retina
[10] = Sprague Dawley, sclera, topical eye 10 mg/ml (eye drop of 10 μl) = 0.1 mg, read-out: CDO concentrations Sclera
[11] = Sprague Dawley, sclera, topical eye 100 mg/ml (eye drop of 10 μl) = 1 mg, read-out: CDO concentrations Sclera
[12] = Sprague Dawley, vitreous humour/lens, topical eye 10 mg/ml (eye drop of 10 μl) = 0.1 mg, read-out: CDO concentrations Vitreous humour/lens
[13] = Sprague-Dawley, optic nerve, topical eye 10 mg/ml (eye drop of 10 μl) = 0.1 mg, read-out: CDO concentrations Optic nerve

Question: With `O=S(=O)(O)c1cc(O)ccc1O` [CDO, Calcium dobesilate monohydrate] as the molecule, how does the concentration at 0.25 h [1] read?
Answer: 4610 ng/g

Question: What about the concentration at 1 h [1] of the same molecule?
Answer: 1010 ng/g

Question: And the concentration at 3 h [1]?
Answer: 1990 ng/g

Question: What about the concentration at 0.25 h [2] of the same molecule?
Answer: 58000 ng/g

Question: What about the concentration at 1 h [2] of the same molecule?
Answer: 1720 ng/g

Question: What about the concentration at 3 h [2] of the same molecule?
Answer: 3110 ng/g

Question: What about the concentration at 3 h [3] of the same molecule?
Answer: 1890 ng/g

Question: And the concentration at 6 h [3]?
Answer: 410 ng/g

Question: And the concentration at 0.25 h [4]?
Answer: 3100 ng/g

Question: What about the concentration at 1 h [4] of the same molecule?
Answer: 9040 ng/g

Question: What about the concentration at 3 h [4] of the same molecule?
Answer: 11400 ng/g

Question: And the concentration at 0.25 h [5]?
Answer: 12600 ng/g

Question: What about the concentration at 1 h [5] of the same molecule?
Answer: 28800 ng/g

Question: What about the concentration at 3 h [5] of the same molecule?
Answer: 47600 ng/g

Question: What about the concentration at 0.25 h [6] of the same molecule?
Answer: 1830 ng/g

Question: What about the concentration at 1 h [6] of the same molecule?
Answer: 600 ng/g

Question: What about the concentration at 3 h [6] of the same molecule?
Answer: 2150 ng/g

Question: And the concentration at 0.25 h (Sprague Dawley, retina/choroid, topical eye 100 mg/ml (eye drop of 10 μl) = 1 mg, read-out: CDO concentrations Retina/Choroid)?
Answer: 17600 ng/g

Question: What about the concentration at 0.25 h [7] of the same molecule?
Answer: 110 ng/g

Question: And the concentration at 1 h [7]?
Answer: 470 ng/g

Question: What about the concentration at 3 h [7] of the same molecule?
Answer: 1040 ng/g

Question: And the concentration at 0.25 h [8]?
Answer: 670 ng/g

Question: And the concentration at 1 h [8]?
Answer: 1340 ng/g

Question: What about the concentration at 3 h [8] of the same molecule?
Answer: 2420 ng/g

Question: What about the concentration at 0.25 h (Sprague Dawley, retina, topical eye 10 mg/ml (eye drop of 10 μl) = 0.1 mg, read-out: CDO concentrations Retina) of the same molecule?
Answer: 100 ng/g

Question: And the concentration at 0.25 h [9]?
Answer: 2030 ng/g

Question: What about the concentration at 1 h [9] of the same molecule?
Answer: 640 ng/g

Question: What about the concentration at 3 h [9] of the same molecule?
Answer: 250 ng/g

Question: And the concentration at 6 h [9]?
Answer: 130 ng/g

Question: What about the concentration at 0.25 h [10] of the same molecule?
Answer: 170 ng/g

Question: What about the concentration at 1 h [10] of the same molecule?
Answer: 330 ng/g

Question: And the concentration at 3 h [10]?
Answer: 770 ng/g

Question: What about the concentration at 0.25 h [11] of the same molecule?
Answer: 3540 ng/g

Question: What about the concentration at 1 h [11] of the same molecule?
Answer: 1140 ng/g

Question: What about the concentration at 3 h [11] of the same molecule?
Answer: 220 ng/g

Question: And the concentration at 0.25 h [12]?
Answer: 1480 ng/g

Question: What about the concentration at 1 h [12] of the same molecule?
Answer: 1680 ng/g

Question: What about the concentration at 3 h [12] of the same molecule?
Answer: 190 ng/g

Question: And the concentration at 0.25 h [13]?
Answer: 5300 ng/g

Question: What about the concentration at 1 h [13] of the same molecule?
Answer: 850 ng/g
